Reference: ChEMBL document CHEMBL1150338, “Prediction and identification of drug interactions with the human ATP-binding cassette transporter multidrug-resistance associated protein 2 (MRP2; ABCC2)” (J Med Chem, 2008)

Molecular target: MRP2 (ABCC2) (Homo sapiens, UniProt Q92887);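 further: Inside-out membrane vesicles from Sf9 insect cells expressing human MRP2, measuring uptake of the estradiol glucuronide substrate, expressed as percent of untreated control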
Assay: in vitro
Details: probe estradiol-17-beta-glucuronide
Description: Effect on human MRP2-mediated estradiol-17-beta-glucuronide transport in Sf9 cells inverted membrane vesicles relative to control

Sequence of MRP2 (ABCC2) (Q92887 whole entry): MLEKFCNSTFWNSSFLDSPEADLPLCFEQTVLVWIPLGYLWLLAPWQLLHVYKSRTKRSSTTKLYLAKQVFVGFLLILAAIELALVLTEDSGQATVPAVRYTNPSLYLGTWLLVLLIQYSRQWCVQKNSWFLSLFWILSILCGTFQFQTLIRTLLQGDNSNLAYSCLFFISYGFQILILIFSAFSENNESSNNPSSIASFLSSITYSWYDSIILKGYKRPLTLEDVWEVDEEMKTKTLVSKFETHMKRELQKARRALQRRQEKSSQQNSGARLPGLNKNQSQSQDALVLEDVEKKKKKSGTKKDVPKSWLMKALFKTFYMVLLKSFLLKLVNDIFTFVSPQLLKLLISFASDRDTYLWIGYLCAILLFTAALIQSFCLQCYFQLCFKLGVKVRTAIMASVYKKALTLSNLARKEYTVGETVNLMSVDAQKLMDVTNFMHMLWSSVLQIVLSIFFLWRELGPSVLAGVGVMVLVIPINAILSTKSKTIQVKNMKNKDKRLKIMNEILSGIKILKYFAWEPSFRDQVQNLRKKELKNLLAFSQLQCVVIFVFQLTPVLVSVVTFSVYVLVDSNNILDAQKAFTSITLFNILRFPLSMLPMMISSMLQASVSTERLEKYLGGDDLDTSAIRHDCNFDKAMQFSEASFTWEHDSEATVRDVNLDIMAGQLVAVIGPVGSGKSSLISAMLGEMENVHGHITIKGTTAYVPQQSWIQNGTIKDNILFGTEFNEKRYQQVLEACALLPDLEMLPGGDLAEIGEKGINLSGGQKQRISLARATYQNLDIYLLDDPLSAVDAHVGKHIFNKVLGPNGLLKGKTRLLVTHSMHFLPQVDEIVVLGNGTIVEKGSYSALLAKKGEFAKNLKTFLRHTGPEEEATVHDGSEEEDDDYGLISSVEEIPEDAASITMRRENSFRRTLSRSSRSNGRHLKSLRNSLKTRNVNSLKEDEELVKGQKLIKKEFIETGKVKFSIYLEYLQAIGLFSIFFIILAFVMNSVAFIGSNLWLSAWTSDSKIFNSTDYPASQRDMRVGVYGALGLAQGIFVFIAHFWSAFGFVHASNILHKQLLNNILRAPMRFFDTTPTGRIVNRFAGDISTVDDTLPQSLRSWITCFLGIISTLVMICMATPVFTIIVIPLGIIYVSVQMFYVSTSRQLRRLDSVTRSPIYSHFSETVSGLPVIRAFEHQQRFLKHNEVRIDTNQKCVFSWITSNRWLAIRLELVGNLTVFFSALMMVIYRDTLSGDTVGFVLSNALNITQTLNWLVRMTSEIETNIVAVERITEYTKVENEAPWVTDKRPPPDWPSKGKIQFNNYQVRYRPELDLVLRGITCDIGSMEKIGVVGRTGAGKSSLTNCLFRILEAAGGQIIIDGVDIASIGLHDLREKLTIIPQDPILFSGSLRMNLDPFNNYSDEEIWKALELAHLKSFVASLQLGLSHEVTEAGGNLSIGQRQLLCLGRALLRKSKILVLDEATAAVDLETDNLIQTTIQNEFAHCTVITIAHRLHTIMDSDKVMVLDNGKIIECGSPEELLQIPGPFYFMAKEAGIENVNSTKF

SMILES	activity
CSc1ccc2c(c1)N(CCC1CCCCN1C)c1ccccc1S2 (centres undefined) [THIORIDAZINE]	-1%
CCS(=O)(=O)CCn1c([N+](=O)[O-])cnc1C [TINIDAZOLE]	55%
COc1cccc([C@@]2(O)CCCC[C@@H]2CN(C)C)c1 [TRAMADOL]	89%
N[C@@H](Cc1c[nH]c2ccccc12)C(=O)O [TRYPTOPHAN]	66%
CC(C)[C@H](N)C(=O)OCCOCn1cnc2c(=O)[nH]c(N)nc21 [VALACYCLOVIR]	94%
CCCC(CCC)C(=O)O [VALPROIC ACID]	94%
CC[C@]1(O)C[C@@H]2CN(CCc3c([nH]c4ccccc34)[C@@](C(=O)OC)(c3cc4c(cc3OC)N(C)[C@H]3[C@@](O)(C(=O)OC)[C@H](OC(C)=O)[C@]5(CC)C=CCN6CC[C@]43[C@@H]65)C2)C1 [VINBLASTINE]	78%
CC[C@]1(O)C[C@H]2CN(CCc3c([nH]c4ccccc34)[C@@](C(=O)OC)(c3cc4c(cc3OC)N(C=O)[C@H]3[C@@](O)(C(=O)OC)[C@H](OC(C)=O)[C@]5(CC)C=CCN6CC[C@]43[C@@H]65)C2)C1 [VINCRISTINE]	82%
CC(=O)CC(c1ccccc1)c1c(O)c2ccccc2oc1=O (centres undefined) [WARFARIN]	136%
Cc1cn([C@H]2C[C@H](N=[N+]=[N-])[C@@H](CO)O2)c(=O)[nH]c1=O [ZIDOVUDINE]	103%

Same assay, conditions: sf9

SMILES	activity
CN(C)C(=O)CCSC(SCCC(=O)O)c1cccc(/C=C/c2ccc3ccc(Cl)cc3n2)c1 (centres undefined) [MK-571]	9%
CC(C)(C)NC[C@H](O)COc1nsnc1N1CCOCC1 [TIMOLOL]	91%
COc1cc(Cc2cnc(N)nc2N)cc(OC)c1OC [TRIMETHOPRIM]	107%

Molecular target: ATP-binding cassette sub-family C member 2 (Homo sapiens, UniProt Q92887)
Assay: Inhibition of human MRP2-mediated estradiol-17-beta-glucuronide transport in Sf9 cells inverted membrane vesicles
Details: not given

Sequence of ATP-binding cassette sub-family C member 2 (Q92887 whole entry): as above

SMILES	IC50
CN(C)C(=O)CCSC(SCCC(=O)O)c1cccc(/C=C/c2ccc3ccc(Cl)cc3n2)c1 (centres undefined) [MK-571]	10 µM
